Source: the supplement of paper PMC10307832

How the values were obtained:
Test in all cases: relative viability (nuclei count vs DMSO), 5 days (fraction); higher = more cells survive
Lapatinib + Pemetrexed = compound: CS(=O)(=O)CCNCc1ccc(-c2ccc3ncnc(Nc4ccc(OCc5cccc(F)c5)c(Cl)c4)c3c2)o1 [Lapatinib] + Nc1nc2[nH]cc(CCc3ccc(C(=O)N[C@@H](CCC(=O)O)C(=O)O)cc3)c2c(=O)[nH]1 [Pemetrexed] (partner 0.2 µM)
How it was run: (§1)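 Values are medians from duplicate plates. Each reflects relative viability, defined as the nuclei count of treated wells over that of vehicle wells. Lung cancer cell lines in 1536-well plates were pin-tool dosed one day after seeding with one drug alone or with a fixed anchor-drug dose plus five library-drug doses (not always all listed) in √10 steps, then fixed, stained and imaged at 4× after 5 days.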

Lapatinib + Vorinostat = compound: CS(=O)(=O)CCNCc1ccc(-c2ccc3ncnc(Nc4ccc(OCc5cccc(F)c5)c(Cl)c4)c3c2)o1 [Lapatinib] + O=C(CCCCCCC(=O)Nc1ccccc1)NO [Vorinostat] (partner 1 µM)
How it was run: as §1

Wnt-C59 + Luminespib = compound: CC1=NC=CC(=C1)C2=CC=C(C=C2)CC(=O)NC3=CC=C(C=C3)C4=CN=CC=C4 [Wnt-C59] + CCNC(=O)c1noc(-c2cc(C(C)C)c(O)cc2O)c1-c1ccc(CN2CCOCC2)cc1 [Luminespib] (partner 0.01 µM)
How it was run: as §1

Lapatinib + Dasatinib = compound: CS(=O)(=O)CCNCc1ccc(-c2ccc3ncnc(Nc4ccc(OCc5cccc(F)c5)c(Cl)c4)c3c2)o1 [Lapatinib] + Cc1nc(Nc2ncc(C(=O)Nc3c(C)cccc3Cl)s2)cc(N2CCN(CCO)CC2)n1 [Dasatinib] (partner 0.075 µM)
How it was run: as §1

Row | Cell Line | relative viability (Lapatinib + Pemetrexed; first compound 0.06325 µM) | relative viability (Lapatinib + Pemetrexed; first compound 0.2 µM) | relative viability (Lapatinib + Pemetrexed; first compound 0.6325 µM) | relative viability (Lapatinib + Pemetrexed; first compound 2 µM) | relative viability (Lapatinib + Vorinostat; first compound 0.06325 µM) | relative viability (Lapatinib + Vorinostat; first compound 0.2 µM) | relative viability (Lapatinib + Vorinostat; first compound 0.6325 µM) | relative viability (Lapatinib + Vorinostat; first compound 2 µM) | relative viability (Wnt-C59 + Luminespib; first compound 0.001 µM) | relative viability (Wnt-C59 + Luminespib; first compound 0.01 µM) | relative viability (Wnt-C59 + Luminespib; first compound 0.03162 µM) | relative viability (Wnt-C59 + Luminespib; first compound 0.1 µM) | relative viability (Lapatinib + Dasatinib; first compound 0.02 µM) | relative viability (Lapatinib + Dasatinib; first compound 0.06325 µM) | relative viability (Lapatinib + Dasatinib; first compound 0.2 µM) | relative viability (Lapatinib + Dasatinib; first compound 0.6325 µM) | relative viability (Lapatinib + Dasatinib; first compound 2 µM) | relative viability (Lapatinib + Pemetrexed; first compound 0.02 µM) | relative viability (Lapatinib + Vorinostat; first compound 0.02 µM)
1 | HOP-62 | 0.318 | 0.299 | 0.365 | 0.389 | 0.631 | 0.639 | 0.678 | 0.655 | 0.945 | 0.913 | 0.969 | 0.927 | 0.508 | 0.633 | 0.615 | 0.69 | 0.566 |  | 
2 | LCLC-103H | 0.437 | 0.47 | 0.494 | 0.425 | 0.65 | 0.768 | 0.779 | 0.692 | 0.845 | 0.919 | 0.977 | 0.973 | 0.312 | 0.378 | 0.455 | 0.511 | 0.416 | 0.558 | 0.582
3 | NCI-H1650 | 0.377 | 0.395 | 0.337 | 0.345 | 0.578 | 0.554 | 0.516 | 0.664 | 0.223 | 0.197 | 0.203 | 0.214 | 0.263 | 0.253 | 0.264 | 0.38 | 0.245 | 0.364 | 0.474
4 | LK-2 |  | 0.261 |  | 0.264 |  | 0.222 | 0.325 | 0.357 | 0.199 | 0.159 | 0.174 | 0.213 |  |  | 0.264 | 0.283 | 0.35 | 0.137 | 0.173
5 | LCLC-97TM1 | 0.128 | 0.184 | 0.168 | 0.176 | 0.316 | 0.953 | 0.681 | 0.687 | 0.756 | 0.763 | 0.616 | 0.742 |  |  | 0.854 | 0.91 | 0.875 |  | 
6 | NCI-H1793 | 0.602 | 0.889 | 0.658 | 0.535 | 0.495 | 0.646 | 0.646 | 0.42 | 0.176 |  | 0.204 | 0.201 |  | 0.339 | 0.398 | 0.319 | 0.316 |  | 
7 | SW 900 | 0.432 | 0.494 | 0.471 | 0.45 | 0.516 | 0.476 | 0.468 | 0.408 | 0.159 | 0.179 | 0.172 | 0.197 |  | 0.435 | 0.479 | 0.595 | 0.373 |  | 
8 | SK-MES-1 | 0.93 | 0.943 | 0.997 | 0.405 | 0.98 | 1.15 | 1.18 | 0.369 | 0.88 | 0.792 | 0.78 | 0.739 | 0.243 | 0.143 | 0.157 | 0.19 | 0.126 | 0.824 | 0.967
9 | NCI-H2023 | 0.182 | 0.233 | 0.193 | 0.186 | 0.402 | 0.603 | 0.612 | 0.552 | 0.775 | 0.757 | 0.785 | 0.702 | 0.458 |  | 0.516 | 0.619 | 0.381 |  | 
10 | NCI-H1792 |  | 0.936 | 0.75 | 0.656 |  |  |  |  | 0.515 | 0.388 |  | 0.656 | 0.763 |  | 0.754 | 0.68 | 0.425 |  | 
11 | NCI-H661 | 0.773 | 0.834 | 0.736 | 0.756 | 0.783 | 0.79 | 0.736 | 0.605 | 0.904 | 0.911 | 0.972 | 0.912 | 0.759 | 0.572 | 0.504 | 0.523 | 0.368 | 0.872 | 0.758
12 | NCI-H1915 | 0.457 | 0.456 | 0.465 | 0.473 | 0.494 | 0.554 | 0.489 | 0.473 | 0.867 | 0.74 | 0.986 | 0.785 |  | 0.285 | 0.337 | 0.293 | 0.297 |  | 
13 | EPLC-272H | 0.235 | 0.337 | 0.288 | 0.21 | 0.328 | 0.457 | 0.583 | 0.391 | 0.309 | 0.519 | 0.389 | 0.302 |  |  | 0.359 | 0.367 | 0.272 | 0.342 | 0.636
14 | ChaGo-K-1 | 0.274 | 0.265 | 0.264 | 0.253 | 0.731 | 0.747 | 0.78 | 0.545 | 0.672 | 0.71 | 0.765 | 0.543 | 0.43 | 0.531 | 0.544 | 0.527 | 0.592 | 0.281 | 0.53
15 | NCI-H3122 | 0.199 | 0.206 | 0.197 | 0.193 | 1.06 | 0.963 | 0.977 | 0.974 | 0.0968 | 0.0872 | 0.0839 | 0.0884 | 0.736 | 0.407 | 0.85 | 0.675 | 0.859 | 0.212 | 0.932
16 | IA-LM |  |  |  |  | 0.795 |  | 0.916 | 0.885 |  |  |  |  |  |  |  |  |  |  | 
17 | EMC-BAC-2 | 0.452 | 0.475 | 0.475 | 0.45 | 0.336 |  | 0.531 | 0.522 | 1.18 | 1.05 | 1.06 | 1.12 | 0.294 | 0.162 | 0.349 | 0.358 | 0.279 |  | 
18 | NCI-H522 | 0.794 | 0.875 | 0.994 | 0.781 | 0.822 | 1 | 0.839 | 0.902 | 1.63 | 1.2 | 0.979 | 1.13 |  | 0.907 | 0.901 | 0.67 | 0.787 |  | 
19 | NCI-H1734 | 0.422 | 0.411 | 0.425 | 0.383 | 0.708 | 0.816 | 0.88 | 0.792 | 0.233 | 0.241 | 0.196 | 0.138 | 0.456 | 0.384 | 0.544 | 0.511 | 0.488 |  | 
20 | LC-2-ad | 0.29 | 0.264 | 0.271 | 0.232 | 0.632 | 0.763 | 0.623 | 0.672 | 1.13 | 0.97 | 1.06 | 0.975 |  | 0.382 | 0.687 | 0.514 | 0.465 |  | 
